Experimental findings from ChEMBL document CHEMBL5214885, “PROTACs to address the challenges facing small molecule inhibitors” (Eur J Med Chem, 2021) are described below.

In experiment [1] the target is Protein cereblon/Bcl-2-like protein 1 (Homo sapiens, UniProt Q07817+Q96SW2). Briefly: PROTAC activity at CRBN/BCL-XL in human MOLT-4 cells assessed as induction of BCL-XL degradation incubated for 16 hrs by Western blot analysis. Format: cell-based. On the technique in general: A western blot detects proteins with antibodies after separation by electrophoresis.
Experiment [2] concerns the target Microtubule-associated protein tau (Homo sapiens, UniProt P10636). Briefly: Binding affinity to N-terminal His-tagged recombinant human Tau40 expressed in Escherichia coli Rosetta (DE3) assessed as dissociation constant incubated for 0.5 hrs by fluorescence polarization assay. (Fluorescence polarisation rises when a labelled molecule tumbles more slowly, as on binding a larger partner.)

Chain of Protein cereblon/Bcl-2-like protein 1 (Q07817 whole entry): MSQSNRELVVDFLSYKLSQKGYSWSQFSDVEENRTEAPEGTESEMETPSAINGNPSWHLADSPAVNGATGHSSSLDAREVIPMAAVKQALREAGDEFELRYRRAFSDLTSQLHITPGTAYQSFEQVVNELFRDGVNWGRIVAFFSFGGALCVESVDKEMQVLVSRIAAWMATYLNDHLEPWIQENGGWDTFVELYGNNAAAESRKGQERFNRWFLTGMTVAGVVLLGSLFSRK
Chain of Protein cereblon/Bcl-2-like protein 1 (Q96SW2 whole entry): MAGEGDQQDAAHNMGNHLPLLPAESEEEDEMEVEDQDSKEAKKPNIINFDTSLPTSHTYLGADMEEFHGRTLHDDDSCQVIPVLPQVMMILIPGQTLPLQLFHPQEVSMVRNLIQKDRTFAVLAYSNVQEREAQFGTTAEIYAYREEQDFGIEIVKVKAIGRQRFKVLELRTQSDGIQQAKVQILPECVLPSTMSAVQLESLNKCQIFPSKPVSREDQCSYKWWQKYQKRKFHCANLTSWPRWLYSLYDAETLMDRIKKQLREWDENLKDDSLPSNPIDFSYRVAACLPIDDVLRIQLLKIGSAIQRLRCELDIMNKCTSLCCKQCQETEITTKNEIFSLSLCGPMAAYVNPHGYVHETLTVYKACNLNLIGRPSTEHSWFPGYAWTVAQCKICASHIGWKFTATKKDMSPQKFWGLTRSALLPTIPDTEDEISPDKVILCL
Chain of Microtubule-associated protein tau (P10636 whole entry): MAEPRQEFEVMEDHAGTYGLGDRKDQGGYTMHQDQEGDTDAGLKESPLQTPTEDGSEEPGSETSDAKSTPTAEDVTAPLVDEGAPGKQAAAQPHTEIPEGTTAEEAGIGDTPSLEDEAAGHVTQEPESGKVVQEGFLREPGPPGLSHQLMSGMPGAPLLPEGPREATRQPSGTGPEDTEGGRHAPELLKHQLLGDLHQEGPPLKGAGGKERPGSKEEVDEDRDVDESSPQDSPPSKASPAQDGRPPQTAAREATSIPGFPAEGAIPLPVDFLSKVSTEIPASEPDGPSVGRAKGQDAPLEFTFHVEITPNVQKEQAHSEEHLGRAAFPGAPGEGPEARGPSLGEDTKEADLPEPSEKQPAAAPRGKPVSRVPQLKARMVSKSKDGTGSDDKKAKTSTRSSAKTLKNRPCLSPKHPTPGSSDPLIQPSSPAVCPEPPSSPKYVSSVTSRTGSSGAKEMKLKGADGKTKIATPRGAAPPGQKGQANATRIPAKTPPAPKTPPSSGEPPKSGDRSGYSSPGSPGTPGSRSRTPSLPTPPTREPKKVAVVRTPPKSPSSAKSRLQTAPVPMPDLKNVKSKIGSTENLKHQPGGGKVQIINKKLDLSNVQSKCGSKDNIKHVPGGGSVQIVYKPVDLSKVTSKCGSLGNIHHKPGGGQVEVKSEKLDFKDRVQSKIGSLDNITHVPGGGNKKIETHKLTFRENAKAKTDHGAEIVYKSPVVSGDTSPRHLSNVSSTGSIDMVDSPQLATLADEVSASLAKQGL

As usually defined, the EC50 is the concentration that produces a half-maximal response. Consider `O=C1CCC(N2C(=O)c3cccc(NCCOCCOCc4cn(CCCC(=O)N5CCN(CC#Cc6ccc(OCCCc7sc(N8CCc9cccc(C(=O)Nc%10nc%11ccccc%11s%10)c9C8)nc7C(=O)O)c(F)c6)CC5)nn4)c3C2=O)C(=O)N1` (configuration not stated), for which the EC50 in experiment [1] came out at 50 nM.

For orientation: Kd means the equilibrium constant for the complex coming apart. In the case of `CC[C@H](C)[C@H](NC(=O)[C@H](Cc1ccc(O)cc1)NC(=O)[C@@H]1CCCN1C(=O)[C@H](C)NC(=O)[C@H](CC(C)C)NC(=O)[C@H](C)NC(=O)[C@H](CO)NC(=O)CNC(=O)[C@H](CO)NC(=O)CNC(=O)CNC(=O)[C@H](CCC(N)=O)NC(=O)[C@H](CCC(=O)O)NC(=O)[C@H](CC(=O)O)NC(=O)[C@H](C)NC(=O)[C@@H](NC(=O)[C@H](C)NC(=O)[C@H](CC(=O)O)NC(=O)[C@H](CCC(N)=O)NC(=O)[C@H](Cc1ccc(O)cc1)NC(=O)[C@H](CCC(N)=O)NC(=O)[C@H](CCC(N)=O)NC(=O)[C@@H](N)Cc1ccc(O)cc1)[C@@H](C)O)C(=O)N1CCC[C@H]1C(=O)N[C@H](CCCNC(=N)N)C(=O)N[C@H](CCCNC(=N)N)C(=O)N[C@H](CCCNC(=N)N)C(=O)N[C@H](CCCNC(=N)N)C(=O)N[C@H](CCCNC(=N)N)C(=O)N[C@H](CCCNC(=N)N)C(=O)N[C@H](CCCNC(=N)N)C(=O)N[C@H](CCCNC(=N)N)C(=O)O`, the Kd in experiment [2] was determined as 394 nM.
